{"source": "patent US11844836B2", "about": "“Topical pharmaceutical composition based on semifluorinated alkanes” (DERMALIQ THERAPEUTICS, INC., priority 2011, dated 2023)", "origin": "cited, not measured here", "details": "testosterone as model drug; pig skin; Hardung, Doctoral Thesis 2008, p. 103", "data": [{"smiles": "CCCCCCCCC(F)(F)C(F)(F)C(F)(F)C(F)(F)C(F)(F)C(F)(F)F", "note": "[F6H8]", "values": [{"measurement": "penetration-enhancing effect of the SFA carrier", "result": "does not affect an improved penetration into the skin"}]}]}
